Results: patent US20210139467A1 (GLAXOSMITHKLINE INTELLECTUAL PROPERTY DEVELOPMENT LIMITED, priority 2017, published 2021)

What follows are compounds tested against IDO1 (Homo sapiens, UniProt P14902) (assay: IDO1 PBMC RapidFire MS Assay). Details: human PBMC stimulated with IFN-γ and LPS; kynurenine detected by mass spectrometry; 2 days; read-out: IDO1 PBMC pIC50 (converted).
Type: cell-based
Design: stimulated with human interferon-γ (IFN-γ); host or cells: human PBMC stimulated with IFN-gamma and LPS
Description: IDO1 PBMC RapidFire MS Assay
Compounds of the present invention were tested via high-throughput cellular assays utilizing detection of kynurenine via mass spectrometry and cytotoxicity as end-points. For the mass spectrometry and cytotoxicity assays, human peripheral blood mononuclear cells (PBMC) (PB003F; AllCells®, Alameda, Calif.) were stimulated with human interferon-γ (IFN-γ) (Sigma-Aldrich Corporation, St. Louis, Mo.) and lipopolysaccharide from Salmonella minnesota (LPS) (Invivogen, San Diego, Calif.) to induce the expression of indoleamine 2, 3-dioxygenase (IDO1). Compounds with IDO1 inhibitory properties decreased the amount of kynurenine produced by the cells via the tryptophan catabolic pathway. Cellular toxicity due to the effect of compound treatment was measured using CellTiter-Glo® reagent (CTG) (Promega Corporation, Madison, Wis.), which is based on luminescent detection of ATP, an indicator of metabolically active cells.
In preparation for the assays, test compounds were serially diluted 3-fold in DMSO from a typical top concentration of 1 mM or 5 mM and plated at 0.5 μL in 384-well, polystyrene, clear bottom, tissue culture treated plates with lids (Greiner Bio-One, Kremsmünster, Austria) to generate 11-point dose response curves. Low control wells (0% kynurenine or 100% cytotoxicity) contained either 0.5 μL of DMSO in the presence of unstimulated (−IFN-γ/-LPS) PBMCs for the mass spectrometry assay or 0.5 μL of DMSO in the absence of cells for the cytotoxicity assay, and high control wells (100% kynurenine or 0% cytotoxicity) contained 0.5 μL of DMSO in the presence of stimulated (+IFN-γ/+LPS) PBMCs for both the mass spectrometry and cytotoxicity assays.
Frozen stocks of PBMCs were washed and recovered in RPMI 1640 medium (Thermo Fisher Scientific, Inc., Waltham, Mass.) supplemented with 10% v/v heat-inactivated fetal bovine serum (FBS) (Thermo Fisher Scientific, Inc., Waltham, Mass.), and 1× penicillin-streptomycin antibiotic solution (Thermo Fisher Scientific, Inc., Waltham, Mass.). The cells were diluted to 1,000,000 cells/mL in the supplemented RPMI 1640 medium. 50 μL of either the cell suspension, for the mass spectrometry assay, or medium alone, for the cytotoxicity assay, were added to the low control wells, on the previously prepared 384-well compound plates, resulting in 50,000 cells/well or 0 cells/well respectively. IFN-γ and LPS were added to the remaining cell suspension at final concentrations of 100 ng/ml and 50 ng/ml respectively, and 50 μL of the stimulated cells were added to all remaining wells on the 384-well compound plates. The plates, with lids, were then placed in a 37° C., 5% CO2 humidified incubator for 2 days.
Following incubation, the 384-well plates were removed from the incubator and allowed to equilibrate to room temperature for 30 minutes. For the cytotoxicity assay, CellTiter-Glo® was prepared according to the manufacturer's instructions, and 40 μL were added to each plate well. After a twenty minute incubation at room temperature, luminescence was read on an EnVision® Multilabel Reader (PerkinElmer Inc., Waltham, Mass.). For the mass spectrometry assay, 10 μL of supernatant from each well of the compound-treated plates were added to 40 μL of acetonitrile, containing 10 μM of an internal standard for normalization, in 384-well, polypropylene, V-bottom plates (Greiner Bio-One, Kremsmünster, Austria) to extract the organic analytes. Following centrifugation at 2000 rpm for 10 minutes, 10 μL from each well of the acetonitrile extraction plates were added to 90 μL of sterile, distilled H2O in 384-well, polypropylene, V-bottom plates for analysis of kynurenine and the internal standard on the RapidFire 300 (Agilent Technologies, Santa Clara, Calif.) and 4000 QTRAP MS (SCIEX, Framingham, Mass.). MS data were integrated using Agilent Technologies' RapidFire Integrator software, and data were normalized for analysis as a ratio of kynurenine to the internal standard. […]

Chain of IDO1 (P14902 whole entry): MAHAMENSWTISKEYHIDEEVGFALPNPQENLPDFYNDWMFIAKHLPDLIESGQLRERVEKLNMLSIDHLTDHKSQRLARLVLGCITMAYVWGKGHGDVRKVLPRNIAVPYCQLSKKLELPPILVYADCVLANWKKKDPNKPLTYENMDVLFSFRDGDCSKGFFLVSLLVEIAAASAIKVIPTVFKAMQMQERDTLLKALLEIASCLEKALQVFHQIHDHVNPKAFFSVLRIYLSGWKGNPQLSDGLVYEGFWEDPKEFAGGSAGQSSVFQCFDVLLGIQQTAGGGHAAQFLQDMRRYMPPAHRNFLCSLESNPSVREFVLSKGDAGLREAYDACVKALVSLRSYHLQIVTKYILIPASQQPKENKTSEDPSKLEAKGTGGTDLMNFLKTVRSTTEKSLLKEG

| Compound | IC50 |
| --- | --- |
| CC(C)CN(c1ncc(C2(C(=O)NS(=O)(=O)C(F)(F)F)CC2)cc1Nc1ccc(Cl)cn1)C1CCOCC1 [Example 11, 1-(5-((5-chloropyridin-2-yl)amino)-6-(isobutyl(tetrahydro-2H-pyran-4-yl)amino)pyridin-3-yl)-N-((trifluoromethyl)sulfonyl)cyclopropane-1-carboxamide] | 31.6 nM |
| CC(C)CN(c1ccc(C2(C(=O)NS(C)(=O)=O)CC2)cc1Nc1cnc(C(N)=O)nc1)C1CCOCC1 [Example 22] | > 10000 nM |
| CC(C)CN(c1cnc(C2(C(=O)O)CC2)cc1Nc1ccc(Cl)cn1)C1CCOCC1 [Example 25] | 50.1 nM |
| CC(C)CN(c1ccc(C(C)(C)C(=O)O)cc1Nc1ccc(Cl)cn1)C1CCOCC1 [Example 1, 2-(3-((5-chloropyridin-2-yl)amino)-4-(isobutyl(tetrahydro-2H-pyran-4-yl)amino)phenyl)-2-methylpropanoic acid] | 3.16 nM |
| CC(C)CN(c1ccc(C2(C(=O)NS(C)(=O)=O)CC2)cc1Nc1cnc(C#N)nc1)C1CCOCC1 [Example 23] | 50.1 nM |
| COc1ncc(Nc2cc(C3(C(=O)NS(C)(=O)=O)CC3)ccc2N(CC(C)C)C2CCOCC2)cn1 [Example 20, 1-(4-(isobutyl(tetrahydro-2H-pyran-4-yl)amino)-3-((2-methoxypyrimidin-5-yl)amino)phenyl)-N-(methylsulfonyl)cyclopropane-1-carboxamide] | 12.6 nM |
| CC(C)CN(c1ncc(C2(C(=O)O)CC2)cc1Nc1ccc(Cl)cn1)C1CCOCC1 [Example 9, 1-(5-((5-chloropyridin-2-yl)amino)-6-(isobutyl(tetrahydro-2H-pyran-4-yl)amino)pyridin-3-yl)cyclopropane-1-carboxylic acid] | 7.94 nM |
| CC(C)CN(CC(C)C)c1ccc(C(C)(C)C(=O)O)cc1Nc1nc(C(F)(F)F)ns1 [Example 13, 2-(4-(diisobutylamino)-3-((3-(trifluoromethyl)-1,2,4-thiadiazol-5-yl)amino)phenyl)-2-methylpropanoic acid] | 12.6 nM |
| CC(C)CN(c1ccc(C2(C(=O)O)CC2)cc1Nc1ccc(Cl)cn1)C1CCOCC1 [Example 5, 1-(3-((5-chloropyridin-2-yl)amino)-4-(isobutyl(tetrahydro-2H-pyran-4-yl)amino)phenyl)cyclopropane-1-carboxylic acid] | 6.31 nM |
| CC(C)CN(c1ccc(C2(C(=O)NS(C)(=O)=O)CC2)cc1Nc1nnc(C2CC2)s1)C1CCOCC1 [Example 19, 1-(3-((5-cyclopropyl-1,3,4-thiadiazol-2-yl)amino)-4-(isobutyl(tetrahydro-2H-pyran-4-yl)amino)phenyl)-N-(methylsulfonyl)cyclopropane-1-carboxamide] | 5.01 nM |
| CC(C)CN(c1ncc(C(C)(C)C(=O)O)cc1Nc1ccc(Cl)cn1)C1CCOCC1 [Example 6, 2-(5-((5-chloropyridin-2-yl)amino)-6-(isobutyl(tetrahydro-2H-pyran-4-yl)amino)pyridin-3-yl)-2-methylpropanoic acid] | 6.31 nM |
| CC(C)CN(c1ccc(C(C)(C)C(=O)NS(=O)(=O)C(F)(F)F)cc1Nc1ccc(Cl)cn1)C1CCOCC1 [Example 3, 2-(3-((5-chloropyridin-2-yl)amino)-4-(isobutyl(tetrahydro-2H-pyran-4-yl)amino)phenyl)-2-methyl-N-((trifluoromethyl)sulfonyl)propanamide] | 20 nM |
| CC(C)CN(c1ncc(C(C)(C)C(=O)NS(C)(=O)=O)cc1Nc1ccc(Cl)cn1)C1CCOCC1 [Example 7, 2-(5-((5-chloropyridin-2-yl)amino)-6-(isobutyl(tetrahydro-2H-pyran-4-yl)amino)pyridin-3-yl)-2-methyl-N-(methylsulfonyl)propanamide] | 5.01 nM |
| CC(C)CN(c1ccc(C(C)(C)C(=O)O)nc1Nc1ccc(Cl)cn1)C1CCOCC1 [Example 17, 2-(6-((5-chloropyridin-2-yl)amino)-5-(isobutyl(tetrahydro-2H-pyran-4-yl)amino)pyridin-2-yl)-2-methylpropanoic acid] | 6.31 nM |
| CC(C)CN(c1ccc(C(C)(C)C(=O)NS(C)(=O)=O)cc1Nc1ccc(Cl)cn1)C1CCOCC1 [Example 2, 2-(3-((5-chloropyridin-2-yl)amino)-4-(isobutyl(tetrahydro-2H-pyran-4-yl)amino)phenyl)-2-methyl-N-(methylsulfonyl)propanamide] | 1.58 nM |
| CC(C)CN(c1ncc(C2(C(=O)NS(C)(=O)=O)CC2)cc1Nc1ccc(Cl)cn1)C1CCOCC1 [Example 10, 1-(5-((5-chloropyridin-2-yl)amino)-6-(isobutyl(tetrahydro-2H-pyran-4-yl)amino)pyridin-3-yl)-N-(methylsulfonyl)cyclopropane-1-carboxamide] | 5.01 nM |
| CC(C)CN(c1ccc(C2(C(=O)NS(C)(=O)=O)CC2)cc1Nc1ccc(Cl)cn1)C1CCOCC1 [Example 4, 1-(3-((5-chloropyridin-2-yl)amino)-4-(isobutyl(tetrahydro-2H-pyran-4-yl)amino)phenyl)-N-(methylsulfonyl)cyclopropane-1-carboxamide] | 0.794 nM |
| CC(C)CN(c1ncc(C(C)(C)C(=O)NS(=O)(=O)C(F)(F)F)cc1Nc1ccc(Cl)cn1)C1CCOCC1 [Example 8, 2-(5-((5-chloropyridin-2-yl)amino)-6-(isobutyl(tetrahydro-2H-pyran-4-yl)amino)pyridin-3-yl)-2-methyl-N-((trifluoromethyl)sulfonyl)propanamide] | 20 nM |
| CC(C)CN(CC(C)C)c1ccc(C(C)(C)C(=O)O)cc1Nc1ccc(Cl)cn1 [Example 12, 2-(3-((5-chloropyridin-2-yl)amino)-4-(diisobutylamino)phenyl)-2-methylpropanoic acid] | 25.1 nM |
| COCc1ccc(Nc2cc(C3(C(=O)NS(C)(=O)=O)CC3)ccc2N(CC(C)C)C2CCOCC2)cn1 [Example 21, 1-(4-(isobutyl(tetrahydro-2H-pyran-4-yl)amino)-3-((6-(methoxymethyl)pyridin-3-yl)amino)phenyl)-N-(methylsulfonyl)cyclopropane-1-carboxamide] | 39.8 nM |
| CC(C)CN(c1ccc(C(C)(C)C(=O)NS(C)(=O)=O)nc1Nc1ccc(Cl)cn1)C1CCOCC1 [Example 18, 2-(6-((5-chloropyridin-2-yl)amino)-5-(isobutyl(tetrahydro-2H-pyran-4-yl)amino)pyridin-2-yl)-2-methyl-N-(methylsulfonyl)propanamide] | 3.16 nM |
| CC(C)CN(c1ccc(C2(C(=O)O)CC2)cc1Nc1nnc(C2CC2)s1)C1CCOCC1 [Example 14, 1-(3-((5-cyclopropyl-1,3,4-thiadiazol-2-yl)amino)-4-(isobutyl(tetrahydro-2H-pyran-4-yl)amino)phenyl)cyclopropane-1-carboxylic acid] | 15.8 nM |
